{
  "source": "paper PMC10185561",
  "about": "“RagD auto-activating mutations impair MiT/TFE activity in kidney tubulopathy and cardiomyopathy syndrome” (Nature Communications, 2023)",
  "biological_target": "T1, GST-RagD (Homo sapiens, UniProt Q9NQL2)",
  "T1 construct": "gene RRAGD; GST fusion from pET24d(+) in E. coli Rosetta (DE3), glutathione Sepharose; RagD alone without RagA/B; GST tag kept",
  "T1 sequence (Q9NQL2 whole entry, the tested form may be a part)": "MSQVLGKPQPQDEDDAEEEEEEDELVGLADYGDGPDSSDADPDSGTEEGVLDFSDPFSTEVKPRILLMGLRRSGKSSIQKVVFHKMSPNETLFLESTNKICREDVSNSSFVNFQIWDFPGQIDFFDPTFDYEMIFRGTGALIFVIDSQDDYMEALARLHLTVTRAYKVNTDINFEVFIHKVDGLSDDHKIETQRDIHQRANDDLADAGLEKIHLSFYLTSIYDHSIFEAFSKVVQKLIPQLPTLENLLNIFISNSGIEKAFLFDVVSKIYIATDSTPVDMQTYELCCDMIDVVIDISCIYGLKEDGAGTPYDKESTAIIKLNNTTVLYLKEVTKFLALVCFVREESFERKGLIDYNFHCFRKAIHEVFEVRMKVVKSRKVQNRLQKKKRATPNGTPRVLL",
  "assay": "UV crosslinking of alpha-32P-GTP, SDS-PAGE, autoradiography",
  "assay_type": "binding",
  "settings": "labelled compound; 1 nM alpha-32P-GTP; 31.25 nM to 2 uM protein; 2 mM MgCl2; 50 mM HEPES pH 7.5; 100 mM potassium acetate; 4 h at 4 C",
  "data": [
    {"compound": "Nc1nc2c(ncn2[C@@H]2O[C@H](COP(=O)(O)OP(=O)(O)OP(=O)(O)O)[C@@H](O)[C@H]2O)c(=O)[nH]1", "note": "[GTP]", "values": [
      {"measurement": "UV crosslinking of alpha-32P-GTP, SDS-PAGE, autoradiography", "result": "WT RagD bound GTP in a concentration-dependent manner"}
    ]}
  ]
}
